Test results from PMC6152105, “NMR Insights into the Structure-Function Relationships in the Binding of Melanocortin Analogues to the MC1R Receptor” (Molecules : A Journal of Synthetic Chemistry and Natural …, 2017).
“Also recorded” adds a separate entry of the source. Read-outs that look alike come from different tables or passages of the source. Numbered stars: 1 amine (or outer) side, 2 acyl side, 3 side chain; on linkers, the order of the positions; unused ones are H or OH. Bridge positions count the residues as written; N and C are the ends. Square brackets hold non-standard residues; d marks the D form. Peptide text beside a SMILES is read from it. nitrobenzoyl (NO2-C6H3-CO) = nitrobenzoyl unit acylating the N-terminal His, with its aryl carbon thioether-bonded to the Cys side-chain S; X1 = O=C(c1cc([N+](=O)[O-])ccc1[*:2])[*:1]

Legend:
MC1R [1] = biological target: T1, MC1R (Mus musculus, UniProt Q01727); assay: Competitive binding assay with [125I]-NDP-α-MSH in B16F1 melanoma cells; conditions: [125I]-[Nle4,DPhe7]-α-MSH radioligand, murine melanoma B16F1 cells, in triplicate, GraphPad Prism fit, read-out: MC1R binding affinity (IC50)
T1 construct: endogenous in cells; host or cells: murine melanoma B16F1 cells
Method: The binding affinities of the peptides CycN-K6 and CycN-K7 to MC1R were tested in a competitive binding assay using [^125I]-[Nle^4,DPhe^7]-α-MSH ([^125I]-NDP-α-MSH) as radioligand and murine melanoma B16F1 cells (Figure S1, Supplementary Materials), as previously described for other α-MSH analogues. Table 1 lists the IC50 values obtained for those two peptides, and for the 19-membered macrocyclic peptides PG10N and CycS-C6 [19, 20]. […] Therefore, a detailed structural comparison of these three peptides is required to understand the molecular basis for their binding to receptor MC1R.
NDP-α-MSH was radioiodinated as described. To determine the inhibitory concentration of 50 % (IC50) values for the α-MSH analogues, competitive binding assays with [^125I]NDP-α-MSH in B16F1 melanoma cells were carried out in triplicate following the previously described procedure. IC50 values were calculated from the plots of the percentage of [^125I]NDP-α-MSH bound to the cells vs. the concentrations of displacing peptides by using GraphPad Prism software (GraphPad Software Inc., La Jolla, CA, USA).

MC1R [2] = biological target: T1, MC1R; conditions: ref [20], cited from earlier work
From the text: Table 1 Sequences, cycle size and MC1R binding affinities (IC50) of cyclic α-MSH analogues. | column: IC50 (nM) || Linear and cyclic analogues of the α-melanocyte stimulating hormone (α-MSH) targeting the human melanocortin receptor 1 (MC1R) are of pharmacological interest for detecting and treating melanoma. The central sequence of α-MSH (His-Phe-Arg-Trp) has been identified as being essential for receptor binding. To deepen current knowledge on the molecular basis for α-MSH bioactivity, we aimed to understand the effect of cycle size on receptor binding. To that end, we synthesised two macrocyclic isomeric α-MSH analogues, c[NH-NO2-C6H3-CO-His-DPhe-Arg-Trp-Lys]-Lys-NH2 (CycN-K6) and c[NH-NO2-C6H3-CO-His- ... || Aimed at enhancing the biological stability, potency and specificity of the endogenous ligand, a library of α-MSH analogues has been designed for imaging and therapeutic applications. […] However, replacement of the alkylthioaryl-bridge (Cy ... || (+ 1 further places)

MC1R [3] = conditions: 19-membered parent peptide; ref [19]; read-out: MC1R binding affinity (IC50); cited from earlier work
From the text: Table 1 Sequences, cycle size and MC1R binding affinities (IC50) of cyclic α-MSH analogues. | column: IC50 (nM)

all human MCRs = conditions: ref [19]; cited from earlier work
From the text: Aimed at enhancing the biological stability, potency and specificity of the endogenous ligand, a library of α-MSH analogues has been designed for imaging and therapeutic applications. […] However, replacement of the alkylthioaryl-bridge (Cy ...

T1 sequence (Q01727 whole entry): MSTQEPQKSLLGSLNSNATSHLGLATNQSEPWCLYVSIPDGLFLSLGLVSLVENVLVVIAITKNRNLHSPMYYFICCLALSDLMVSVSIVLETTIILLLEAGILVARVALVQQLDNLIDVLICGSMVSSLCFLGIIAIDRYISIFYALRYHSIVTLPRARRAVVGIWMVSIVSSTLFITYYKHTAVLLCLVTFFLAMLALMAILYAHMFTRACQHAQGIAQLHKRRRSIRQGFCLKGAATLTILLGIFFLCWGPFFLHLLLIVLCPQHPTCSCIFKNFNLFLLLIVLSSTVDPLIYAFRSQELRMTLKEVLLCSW

## N=C(N)NCCC[C@@H]1NC(=O)[C@@H](Cc2ccccc2)NC(=O)[C@H](Cc2c[nH]cn2)NC(=O)c2cc([N+](=O)[O-])ccc2NCCCC[C@@H](C(=O)N[C@@H](CCCCN)C(N)=O)NC(=O)[C@H](Cc2c[nH]c3ccccc23)NC1=O [CycN-K6, c[NH–NO2–C6H3–CO–His–DPhe–Arg–Trp–Lys]–Lys–NH2] (H[dF]RWKK-NH2; linker N-5 via X1)
MC1R [1]
  IC50: 155 ± 16 nM

## N=C(N)NCCC[C@@H]1NC(=O)[C@@H](Cc2ccccc2)NC(=O)[C@H](Cc2c[nH]cn2)NC(=O)c2cc([N+](=O)[O-])ccc2NCCCC[C@@H](C(N)=O)NC(=O)[C@H](CCCCN)NC(=O)[C@H](Cc2c[nH]c3ccccc23)NC1=O [CycN-K7, c[NH–NO2–C6H3–CO–His–DPhe–Arg–Trp–Lys–Lys]–NH2] (H[dF]RWKK-NH2; linker N-6 via X1)
MC1R [1]
  IC50: 495 ± 101 nM

## c[S–NO2–C6H3–CO–His–DPhe–Arg–Trp–Cys]–Lys–NH2 (sidechain bridge or staple) ({nitrobenzoyl (NO2-C6H3-CO)}-H[dF]RWCK-NH2; thioether N-5) [CycS-C6, 19-membered cyclic analogue, previously reported by the authors]
MC1R [2]; previously reported by the authors, competitive binding, [125I]-NDP-α-MSH, B16F1 cells, read-out: MC1R binding affinity (IC50)
  IC50: 1770 ± 480 nM

## c[S–NO2–C6H3–CO–His–DPhe–Arg–Trp–Cys]–Lys–NH2 (sidechain bridge or staple) [CycS-C6, 19-membered cyclic analogue, previously reported by the authors]
MC1R [2]; relative to parent PG10N, addition of C-terminal Lys
  MC1R binding in words: strongly decreases affinity to MC1R; also recorded: impaired binding

## c[S–NO2–C6H3–CO–His–DPhe–Arg–Trp–Cys]–NH2 (sidechain bridge or staple) [PG10N, 19-membered alkylthioaryl-bridged macrocyclic α-MSH analogue]
MC1R [3]
  IC50: 3.7 ± 0.5 nM
All human MCRs
  agonist activity: potent full agonist for all human MCRs
